Reference: patent US20030215462A1, “Use of UGT inhibitors to increase bioavailability” (priority 2001, published 2003)
“And” between values parts separate entries of the source, which are not always exact repeats. Identical values can stand only once. Like-named read-outs stand apart in the source and are kept apart here.

How the values were obtained:
[1] = test system: T1, UGT enzymes of human liver microsomes; assay: Inhibition of 7-HFC glucuronidation in human liver microsomes; format: biochemical; details: 7-HFC 50 μM, human liver microsomes 100 μg/ml, 15 min
T1 construct: percentage of control metabolism, 7-HFC glucuronidation; percentage of control metabolism, 7-HFC glucuronidation

[2] = test system: UGT enzymes of human liver microsomes; assay: as above; format: biochemical; details: 7-HFC 50 μM, human liver microsomes 100 μg/ml, 15 min
[3] = test system: UGT enzymes of human liver microsomes; assay: Inhibition of raloxifene glucuronidation (G1, G2) in human liver microsomes; format: biochemical
Text: Compounds were eluted using a binary solvent gradient system. […] Solvent B was methanol. […] Detection was at 280 nm.

[4] = biological target: T2, UGT1A1 (Homo sapiens, UniProt P22309); assay: in vitro
T2 sequence (P22309 26-533): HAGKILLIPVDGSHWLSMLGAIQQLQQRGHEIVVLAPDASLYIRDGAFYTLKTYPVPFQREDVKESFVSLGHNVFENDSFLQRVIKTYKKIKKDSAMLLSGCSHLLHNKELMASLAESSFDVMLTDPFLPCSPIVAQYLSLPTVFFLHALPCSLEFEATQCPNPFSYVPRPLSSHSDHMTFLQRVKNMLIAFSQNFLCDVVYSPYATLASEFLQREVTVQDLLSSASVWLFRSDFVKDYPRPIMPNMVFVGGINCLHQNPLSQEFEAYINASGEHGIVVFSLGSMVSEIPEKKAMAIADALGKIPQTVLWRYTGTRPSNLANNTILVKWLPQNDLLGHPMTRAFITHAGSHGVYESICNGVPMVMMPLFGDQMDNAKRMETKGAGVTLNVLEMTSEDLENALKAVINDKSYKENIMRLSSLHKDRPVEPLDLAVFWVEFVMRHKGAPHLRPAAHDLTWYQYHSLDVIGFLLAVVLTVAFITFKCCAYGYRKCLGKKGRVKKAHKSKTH
Description: (§1) Compounds were eluted using a binary solvent gradient system. Solvent A was water brought to pH 8 with NH4OH. Solvent B was methanol. Solvent flow rate was 1 ml/min and the column temperature was maintained at 50° C. Detection was at 280 nm. […] The system was then returned to the initial conditions and equilibrated for 3 min.

[5] = biological target: T3, UGT1A10 (Homo sapiens, UniProt Q9HAW8); assay: Inhibition of raloxifene glucuronidation by recombinant UGT1A10 Bacculosomes; details: UGT1A10
T3 sequence (Q9HAW8 26-530): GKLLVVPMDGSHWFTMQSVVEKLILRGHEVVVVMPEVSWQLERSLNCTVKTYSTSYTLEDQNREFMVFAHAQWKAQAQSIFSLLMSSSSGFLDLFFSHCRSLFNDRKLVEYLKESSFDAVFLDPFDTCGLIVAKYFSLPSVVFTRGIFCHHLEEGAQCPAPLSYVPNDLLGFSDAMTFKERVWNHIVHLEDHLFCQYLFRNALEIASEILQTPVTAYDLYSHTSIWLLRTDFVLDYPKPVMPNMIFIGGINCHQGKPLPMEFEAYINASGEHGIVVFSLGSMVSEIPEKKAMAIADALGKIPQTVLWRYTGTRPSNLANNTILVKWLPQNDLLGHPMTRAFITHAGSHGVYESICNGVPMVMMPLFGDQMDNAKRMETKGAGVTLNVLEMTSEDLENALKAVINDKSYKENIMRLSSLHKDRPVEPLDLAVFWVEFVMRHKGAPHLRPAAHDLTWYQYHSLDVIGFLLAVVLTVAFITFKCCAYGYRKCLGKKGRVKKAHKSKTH
Description: as §1

[6] = biological target: T2, UGT1A1; assay: Inhibition of raloxifene glucuronidation by recombinant UGT1A1 Supersomes; details: UGT1A1
Description: as §1

[7] = biological target: T3, UGT1A10; assay: in vitro; details: pH 7.5, % of control metabolism
Description: as §1

[8] = biological target: T4, UGT1A3 (Homo sapiens, UniProt P35503); assay: Inhibition of raloxifene glucuronidation by recombinant UGT1A3 Supersomes; details: UGT1A3
T4 sequence (P35503 29-534): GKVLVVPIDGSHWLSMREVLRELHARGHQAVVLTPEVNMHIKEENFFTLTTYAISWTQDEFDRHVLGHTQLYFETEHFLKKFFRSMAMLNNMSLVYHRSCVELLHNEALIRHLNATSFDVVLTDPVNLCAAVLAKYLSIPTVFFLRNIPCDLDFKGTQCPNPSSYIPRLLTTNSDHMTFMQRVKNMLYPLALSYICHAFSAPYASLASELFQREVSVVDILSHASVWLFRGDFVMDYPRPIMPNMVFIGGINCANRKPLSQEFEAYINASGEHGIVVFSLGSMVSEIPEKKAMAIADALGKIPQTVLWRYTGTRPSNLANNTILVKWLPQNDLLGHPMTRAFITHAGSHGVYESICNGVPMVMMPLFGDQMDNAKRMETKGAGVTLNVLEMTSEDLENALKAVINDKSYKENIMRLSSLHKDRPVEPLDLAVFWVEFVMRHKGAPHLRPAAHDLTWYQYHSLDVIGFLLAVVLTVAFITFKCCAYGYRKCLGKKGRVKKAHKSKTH
Description: as §1

[9] = biological target: T5, UGT1A9 (Homo sapiens, UniProt O60656); assay: Inhibition of raloxifene glucuronidation by recombinant UGT1A9 Supersomes; details: for activity at 15 min, 50 µM: human, Supersomes with recombinant human UGT1A9, pH 7.5, probe raloxifene 50 μM
T5 sequence (O60656 26-530): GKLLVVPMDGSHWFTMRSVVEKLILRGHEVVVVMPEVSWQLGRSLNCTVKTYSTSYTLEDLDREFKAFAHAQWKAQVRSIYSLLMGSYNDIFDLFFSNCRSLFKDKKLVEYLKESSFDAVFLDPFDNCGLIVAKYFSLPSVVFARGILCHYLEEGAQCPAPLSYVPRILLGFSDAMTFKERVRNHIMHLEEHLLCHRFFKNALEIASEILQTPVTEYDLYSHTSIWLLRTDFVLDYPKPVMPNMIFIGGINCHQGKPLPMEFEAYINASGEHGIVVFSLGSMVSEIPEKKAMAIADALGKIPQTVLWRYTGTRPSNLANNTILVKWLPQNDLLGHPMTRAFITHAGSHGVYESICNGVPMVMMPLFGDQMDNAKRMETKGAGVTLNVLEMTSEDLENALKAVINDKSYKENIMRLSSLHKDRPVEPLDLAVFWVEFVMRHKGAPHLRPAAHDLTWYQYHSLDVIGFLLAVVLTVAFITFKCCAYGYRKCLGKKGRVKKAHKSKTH
Description: as §1

[10] = biological target: T4, UGT1A3; assay: in vitro
Description: as §1

[11] = humans; cited from earlier work
[12] = G1, inhibitor 500 μM, raloxifene 50 μM, human liver microsomes 250 μg/ml, 15 min
[13] = G2, inhibitor 500 μM, raloxifene 50 μM, human liver microsomes 250 μg/ml, 15 min
[14] = pH 7.5, % of control metabolism, raloxifene G1
[15] = pH 7.5, % of control metabolism, raloxifene G2
[16] = raloxifene 50 μM, inhibitor 100 μM

## CC(C)[C@@H]1CC[C@@H](C)C[C@H]1O [(L)-Menthol]
[1]; inhibitor 500 μM
  % of control metabolism (SD, n = 3), 7-HFC glucuronidation: 75 (2), % and 80 (2) %
[2]; inhibitor 1000 μM
  % of control metabolism (SD, n = 3), 7-HFC glucuronidation: 72 (1) %
[2]; inhibitor 2000 μM
  % of control metabolism (SD, n = 3), 7-HFC glucuronidation: 53 (0) %
[3]
  % of control metabolism (SD, n = 3), raloxifene glucuronide G1: 108 (4) %
  % of control metabolism (SD, n = 3), raloxifene glucuronide G2: 97 (2) %

## CC(=O)OC1CC(C)CCC1C(C)C (single isomer, unassigned; (-)) [(−)-Menthyl acetate]
[1]; inhibitor 100 μM
  % of control metabolism (SD, n = 3), 7-HFC glucuronidation: 86 (2) %
[1]; inhibitor 200 μM
  % of control metabolism (SD, n = 3), 7-HFC glucuronidation: 72 (2) %
[1]; inhibitor 500 μM
  % of control metabolism (SD, n = 3), 7-HFC glucuronidation: 53 (2), % and 53 (1) %
[2]; inhibitor 1000 μM
  % of control metabolism (SD, n = 3), 7-HFC glucuronidation: 32 (1) %
[2]; inhibitor 2000 μM
  % of control metabolism (SD, n = 3), 7-HFC glucuronidation: 26 (1) %
[3]; [12]
  % of control metabolism (SD, n = 3), raloxifene glucuronide G1: 76 (1) %
[3]; [13]
  % of control metabolism (SD, n = 3), raloxifene glucuronide G2: 69 (0) %

## COc1c(C)c2c(c(O)c1C/C=C(\C)CCC(=O)O)C(=O)OC2 [Mycophenolic acid, reference compound]
[4]; [14]
  activity at 15 min, 50 µM: 90%
[4]; [15]
  activity at 15 min, 50 µM: 89%
[4]; pH 7.5, Inhibition of raloxifene glucuronidation, G1, UGT1A1
  activity at 15 min, 50 µM: 90%
[4]; pH 7.5, Inhibition of raloxifene glucuronidation, G2, UGT1A1
  activity at 15 min, 50 µM: 89%
[5]
  inhibition of raloxifene glucuronidation, in words: poor inhibitors
[1]; inhibitor 500 μM
  % of control metabolism (SD, n = 3), 7-HFC glucuronidation: 83 (2) %
[6]
  inhibition of raloxifene glucuronidation, in words: poor inhibitors
[3]; G1, inhibitor 100 μM, raloxifene 50 μM, human liver microsomes 250 μg/ml, 15 min
  % of control metabolism (SD, n = 3), raloxifene glucuronide G1: 89 (3) %
[3]; [12]
  % of control metabolism (SD, n = 3), raloxifene glucuronide G1: 43 (5) %
[3]; G2, inhibitor 100 μM, raloxifene 50 μM, human liver microsomes 250 μg/ml, 15 min
  % of control metabolism (SD, n = 3), raloxifene glucuronide G2: 89 (2) %
[3]; [13]
  % of control metabolism (SD, n = 3), raloxifene glucuronide G2: 47 (1) %
[3]; [16]
  % of control metabolism, raloxifene G1: 89 (3) %
  % of control metabolism, raloxifene G2: 89 (2) %
[7]; raloxifene G1
  activity at 15 min, 50 µM: 110%
[7]; raloxifene G2
  activity at 15 min, 50 µM: 98%
[8]
  inhibition of raloxifene glucuronidation, in words: poor inhibitors
[9]; UGT1A9
  inhibition of raloxifene glucuronidation, in words: poor inhibitors
[9]; formation of glucuronide G1, % of control metabolism, raloxifene G1, UGT1A9, inhibitor 50 μM
  activity at 15 min, 50 µM: 81%
[9]; formation of glucuronide G2, % of control metabolism, raloxifene G2, UGT1A9, inhibitor 50 μM
  activity at 15 min, 50 µM: 83%
[9]; second line (G2, metabolite not given), inhibitor 50 μM, raloxifene 50 μM, 250 μg/ml Supersomes, 1 mM UDPGA, 15 min
  Inhibition of raloxifene glucuronidation, UGT1A9, second line per inhibitor (G2): 83 (3)
[10]; [14]
  activity at 15 min, 50 µM: 95%
[10]; [15]
  activity at 15 min, 50 µM: 87%
[10]; pH 7.5, Inhibition of raloxifene glucuronidation, G1, UGT1A3
  activity at 15 min, 50 µM: 95%
[10]; pH 7.5, Inhibition of raloxifene glucuronidation, G2, UGT1A3
  activity at 15 min, 50 µM: 87%

## C[C@H](CCc1ccccc1)NC[C@H](O)c1ccc(O)c(C(N)=O)c1 [dilevalol]
[11]
  absolute oral bioavailability: 11-29%
